Measurements reported in publication PMC11505029, “Isatin Bis-Imidathiazole Hybrids Identified as FtsZ Inhibitors with On-Target Activity Against Staphylococcus aureus” (Antibiotics, 2024).
Like-named read-outs stand apart in the source and are kept apart here.

What was measured:
[1] = test system: Vero cell line (ATCC CCL-81); test: cell viability and proliferation assay (WST8/CCK-8); type: cell-based; conditions: for viability at 100 µM: Chlorocebus sabaeus, Vero, 48 h, read-out: Cell proliferation, Vero
Experimental: (§1) Vero cell line (ATCC CCL-81) was selected as the model system to assess the effect of the isatin hybrids on normal epithelial cells, and a previously established protocol was used with minor modifications. Briefly, cells were cultured in RPMI-1640 medium supplemented with 10% fetal bovine serum (FBS) (Carlo Erba Reagents, Milan, Italy), 100 U/mL penicillin, and 100 µg/mL streptomycin at 37 °C with 5% CO2. For experiments, cells were seeded into 96-well plates at 10^4 cells/well, and incubated at 37 °C for 24 h. Following washes with PBS, the cell monolayer was incubated with 100 µL of medium containing the 2-fold serial dilutions of the compounds. Both untreated cells and cells incubated with medium containing solvent dilutions were included in each experiment as controls. The cell viability was assessed by a WST8-based assay according to the manufacturer’s instructions (CCK-8, Cell Counting Kit-8, Dojindo Molecular Technologies, Rockville, MD, USA). After 48 h of incubation, culture medium was removed from each well, the monolayer was washed with PBS, and 100 µL of fresh medium containing 10 µL of CCK-8 solution were added. After 2 h at 37 °C, the OD450nm was read, and data were expressed as the percentage of the cell viability relative to the untreated controls. The CC50 was obtained from the corresponding dose–response curves generated, as previously reported for IC50 values.

E. coli ATCC 25922 = test: broth microdilution antimicrobial activity, E. coli reference strain; type: cell-based, Escherichia coli; conditions: Escherichia coli
Experimental: (§2) Reference bacterial strains of Staphylococcus aureus (ATCC 25923), Escherichia coli (ATCC 25922), and Candida albicans (ATCC 10231) were used in this study as Gram-positive, Gram-negative, and fungal models, respectively. These reference strains were purchased from the American Type Culture Collection (ATCC, Manassas, VA, USA); bacterial cultures were routinely grown at 37 °C on 5% blood agar plate, while fungal cultures on Sabouraud Dextrose Agar (Biolife Italiana S.r.l., Milan, Italy).
(§3) The dry powder of the isatin derivatives was resuspended in dimethylsulfoxide (DMSO) at 20 mM and used as stock solutions. For biological investigations, compounds were used in the range 100–0.78 µM, and the solvent in the corresponding percentage range.
(§4) The antimicrobial activity of the compounds was assessed by a well-established broth microdilution procedure in microtiter plates and in compliance with the Clinical and laboratory Standard Institute (CLSI) guidelines (Clinical and Laboratory Standards Institute, Wayne, PA, USA). In short, microbial inocula were prepared at 0.5 McFarland in PBS and, subsequently, bacterial suspensions were diluted 1:200 in Mueller–Hinton broth (Sigma-Aldrich, St. Louis, MO, USA), while fungal inoculum was diluted 1:20 in RPMI-1640 medium (Gibco®, ThermoFisher Scientific Inc., Waltham, MA, USA), containing 2% glucose and 0.3% levo-glutamine buffered to pH 7.0 with 0.165 M 3-(N-morpholino)propanesulfonic acid (MOPS). A total of 100 µL of these microbial suspensions were introduced in a 96-well microplate and incubated with 100 µL of the compounds, two-fold serially diluted in the range of 100–0.19 µM. Positive controls (microbial suspensions in regular media), negative controls (only compounds), and solvent controls (microbial suspensions incubated with DMSO dilutions) were included in the tests. The plate was incubated at 37 °C for 24 h, and subsequently, the optical density at 630 nm (OD630nm) was spectrophotometrically measured. Each experiment was carried out with three technical replicates (i.e., three wells per sample) and repeated at least two times for statistical power. […] IC50 values, corresponding to the concentration of the compound giving rise to an inhibition of growth of 50%, were obtained by interpolation on dose–response curves generated by plotting the percentages of growth inhibition, relative to the positive control (set to 100% of growth), as a function of the tested concentrations (on a logarithm scale). Statistical analysis was carried out using GraphPad Prism version 9.4.1 for Windows (GraphPad Software, San Diego, CA, USA, www.graphpad.com).

C. albicans ATCC 10231 = test: broth microdilution antimicrobial activity, C. albicans reference strain; type: cell-based, Candida albicans; conditions: Candida albicans
Experimental: as §2, §3, §4

S. aureus ATCC 25923 = test: broth microdilution antimicrobial activity, S. aureus reference strain; type: cell-based, Staphylococcus aureus; conditions: for activity at 100 µM / IC50: Staphylococcus aureus; for IC50: ATCC25923, S. aureus ATCC 25923, mean [95% confidence interval]
Experimental: as §2, §3, §4

[2] = cell viability and proliferation assay (WST8/CCK-8); type: cell-based; conditions: African green monkey, Vero cells (ATCC CCL-81); Vero cells; mean [95% confidence interval]
Experimental: as §1

[3] = 100 μM, viability relative to untreated controls, mean ± SD
[4] = ATCC25922, 100 μM, growth relative to positive control, mean ± SD, read-out: Microbial growth, E. coli
[5] = ATCC10231, 100 μM, growth relative to positive control, mean ± SD, read-out: Microbial growth, C. albicans
[6] = ATCC25923, 100 μM, growth relative to positive control, mean ± SD, read-out: Microbial growth, S. aureus
[7] = ATCC25922, read-out: Microbial growth, E. coli
[8] = ATCC10231, read-out: Microbial growth, C. albicans
[9] = ATCC25923, read-out: Microbial growth, S. aureus

Row | SMILES | viability at 100 µM [1, 3] [%] | activity at 100 µM (E. coli ATCC 25922; [4]) [%] | activity at 100 µM (C. albicans ATCC 10231; [5]) [%] | activity at 100 µM (S. aureus ATCC 25923; [6]) [%] | further results
1 | COc1ccc2c(c1)C(c1c(Cl)nc3sc(C)cn13)(c1c(Cl)nc3sc(C)cn13)C(=O)N2 [Compound 3, 3,3-bis(6-Chloro-2-methylimidazo[2,1-b]thiazol-5-yl)-5-methoxyindolin-2-one] | 90.3 ± 4.2 | 97 ± 1.8 | 101 ± 3.6 | 104 ± 8.5 | –
2 | CNC(C)C1CCC(N)C(OC2C(N)CC(N)C(OC3OCC(C)(O)C(NC)C3O)C2O)O1 (centres unmarked) [GMN, gentamicin, reference compound] | – | – | – | – | IC50 (S. aureus ATCC 25923): 4 µM
3 | O=C1Nc2cc(F)ccc2C1(c1c(Cl)nc2sccn12)c1c(Cl)nc2sccn12 [Compound 7, 3,3-bis(6-Chloroimidazo[2,1-b]thiazol-5-yl)-6-fluoroindolin-2-one] | 88.2 ± 1.9 | 106 ± 2.1 | 81.1 ± 0.7 | 76.9 ± 1.5 | –
4 | Cc1cn2c(C3(c4c(Cl)nc5sc(C)cn45)C(=O)Nc4ccc(F)cc43)c(Cl)nc2s1 [Compound 6, 3,3-bis(6-Chloro-2-methylimidazo[2,1-b]thiazol-5-yl)-5-fluoroindolin-2-one] | 38.2 ± 1.5 | 98.7 ± 0.9 | 101 ± 1.9 | 101 ± 10.1 | –
5 | O=C1N(CC=Cc2ccccc2)c2ccccc2C1(c1c(Cl)nc2sccn12)c1c(Cl)nc2sccn12 [Compound 15, 3,3-bis(6-Chloroimidazo[2,1-b]thiazol-5-yl)-1-cinnamylindolin-2-one] | 101 ± 1.5 | 69.5 ± 1.8 | 60.7 ± 1.7 | < 30 | CC50 at 48 h [2]: > 100 µM; IC50 (S. aureus ATCC 25923): 90.1 µM
6 | O=C1Nc2cc(I)ccc2C1(c1c(Cl)nc2sccn12)c1c(Cl)nc2sccn12 [Compound 9, 3,3-bis(6-Chloroimidazo[2,1-b]thiazol-5-yl)-6-iodoindolin-2-one] | 98.2 ± 1.5 | 98.3 ± 2.5 | 63.7 ± 1.2 | 80.2 ± 2.6 | –
7 | Cc1cn2c(C3(O)C(=O)Nc4cccc(C(F)(F)F)c43)c(Cl)nc2s1 (centres unmarked) [Compound 18, 3-(6-Chloro-2-methylimidazo[2,1-b]thiazol-5-yl)-3-hydroxy-4-(trifluoromethyl)indolin-2-one] | – | – | – | – | viability at 100 µM [1]: 93.1 ± 2.9%; activity at 100 µM (E. coli ATCC 25922; [7]): 109 ± 3.5%; activity at 100 µM (C. albicans ATCC 10231; [8]): 97.1 ± 0.9%; activity at 100 µM (S. aureus ATCC 25923; [9]): 101 ± 3.1%
8 | Cc1cn2c(C3(c4c(Cl)nc5sc(C)cn45)C(=O)Nc4cc(I)ccc43)c(Cl)nc2s1 [Compound 10, 3,3-bis(6-Chloro-2-methylimidazo[2,1-b]thiazol-5-yl)-6-iodoindolin-2-one] | 78.8 ± 5.5 | 94.3 ± 2.7 | 59.6 ± 0.4 | 87.7 ± 2.5 | –
9 | Cc1cn2c(C3(c4c(Cl)nc5sc(C)cn45)C(=O)N(Cc4ccccc4)c4ccccc43)c(Cl)nc2s1 [Compound 14, 1-Benzyl-3,3-bis(6-chloro-2-methylimidazo[2,1-b]thiazol-5-yl)indolin-2-one] | 104 ± 1.9 | 99 ± 0.4 | 116 ± 1.2 | 107 ± 3.9 | –
10 | Cc1cn2c(C3(c4c(Cl)nc5sc(C)cn45)C(=O)Nc4cc(F)ccc43)c(Cl)nc2s1 [Compound 8, 3,3-bis(6-Chloro-2-methylimidazo[2,1-b]thiazol-5-yl)-6-fluoroindolin-2-one] | 75.2 ± 2.5 | 99.8 ± 2.6 | 64.2 ± 4.3 | 97.9 ± 2.8 | –
11 | Cc1cn2c(C3(c4c(Cl)nc5sc(C)cn45)C(=O)N(Cc4ccc(Cl)cc4)c4ccccc43)c(Cl)nc2s1 [Compound 4, 3,3-bis(6-Chloro-2-methylimidazo[2,1-b]thiazol-5-yl)-1-(4-chlorobenzyl)indolin-2-one] | 116 ± 4 | 99 ± 2.9 | 125 ± 6.3 | 98.7 ± 0.8 | –
12 | Cc1cn2c(C3(c4c(Cl)nc5sc(C)cn45)C(=O)N(CC=Cc4ccccc4)c4ccccc43)c(Cl)nc2s1 [Compound 16, 3,3-bis(6-Chloro-2-methylimidazo[2,1-b]thiazol-5-yl)-1-cinnamylindolin-2-one] | 93.3 ± 1.9 | 69.2 ± 0.9 | 60.3 ± 1.1 | 69.1 ± 4.3 | –
13 | Cc1cn2c(C3(O)C(=O)Nc4cccc(I)c43)c(Cl)nc2s1 (centres unmarked) [Compound 20, 3-(6-Chloro-2-methylimidazo[2,1-b]thiazol-5-yl)-3-hydroxy-4-iodoindolin-2-one] | – | – | – | – | viability at 100 µM [1]: 101 ± 2.4%; activity at 100 µM (E. coli ATCC 25922; [7]): 98 ± 1.3%; activity at 100 µM (C. albicans ATCC 10231; [8]): 108 ± 2.7%; activity at 100 µM (S. aureus ATCC 25923; [9]): 104 ± 4%
14 | CC1(C)S[C@@H]2[C@H](NC(=O)[C@H](N)c3ccccc3)C(=O)N2[C@H]1C(=O)O [AMP, ampicillin, reference compound] | – | – | – | – | IC50 (S. aureus ATCC 25923): 2.56 µM
15 | COc1cccc2c1C(=O)c1c(O)c3c(c(O)c1C2=O)C[C@@](O)(C(=O)CO)C[C@@H]3O[C@H]1C[C@H](N)[C@H](O)[C@H](C)O1 [DOX, doxorubicin, reference compound] | – | – | – | – | CC50 at 48 h [2]: 70.6 µM
16 | O=C1Nc2ccc(F)cc2C1(c1c(Cl)nc2sccn12)c1c(Cl)nc2sccn12 [Compound 5, 3,3-bis(6-Chloroimidazo[2,1-b]thiazol-5-yl)-5-fluoroindolin-2-one] | 43.5 ± 3.3 | 98.9 ± 1.4 | 102 ± 1.5 | < 30 | CC50 at 48 h [2]: 116 µM; SI (selectivity index, CC50/IC50) (S. aureus ATCC 25923; CC50 Vero / IC50 S. aureus): 1.5; IC50 (S. aureus ATCC 25923): 75.6 µM
17 | Cc1cn2c(C3(c4c(Cl)nc5sc(C)cn45)C(=O)Nc4cc(OC(F)(F)F)ccc43)c(Cl)nc2s1 [Compound 12, 3,3-bis(6-Chloro-2-methylimidazo[2,1-b]thiazol-5-yl)-6-(trifluoromethoxy)indolin-2-one] | 56.1 ± 1.1 | 96.6 ± 1 | 118.1 ± 0.2 | 110 ± 12.8 | –
18 | O=C1Nc2cccc(I)c2C1(O)c1c(Cl)nc2sccn12 (centres unmarked) [Compound 19, 3-(6-Chloroimidazo[2,1-b]thiazol-5-yl)-3-hydroxy-4-iodoindolin-2-one] | – | – | – | – | viability at 100 µM [1]: 98.9 ± 2.6%; activity at 100 µM (E. coli ATCC 25922; [7]): 95.2 ± 2.6%; activity at 100 µM (C. albicans ATCC 10231; [8]): 131 ± 7.5%; activity at 100 µM (S. aureus ATCC 25923; [9]): 148 ± 4.8%
19 | O=C1N(Cc2ccccc2)c2ccccc2C1(c1c(Cl)nc2sccn12)c1c(Cl)nc2sccn12 [Compound 13, 1-Benzyl-3,3-bis(6-chloroimidazo[2,1-b]thiazol-5-yl)indolin-2-one] | 56.8 ± 0.1 | 96.2 ± 4 | 113.7 ± 0.7 | 92 ± 4 | Cell proliferation, Vero [1, 3]: less active
20 | O=C1Nc2cccc(C(F)(F)F)c2C1(O)c1c(Cl)nc2sccn12 (centres unmarked) [Compound 17, 3-(6-Chloroimidazo[2,1-b]thiazol-5-yl)-3-hydroxy-4-(trifluoromethyl)indolin-2-one] | – | – | – | – | viability at 100 µM [1]: 103.1 ± 1%; activity at 100 µM (E. coli ATCC 25922; [7]): 104 ± 1.6%; activity at 100 µM (C. albicans ATCC 10231; [8]): 132 ± 3.9%; activity at 100 µM (S. aureus ATCC 25923; [9]): 149 ± 3.8%
